{
  "source": "patent US5559147A",
  "about": "“Aromatic fluorine-containing organotin compounds and anti-tumour composition” (Pharmachemie B.V., priority 1994, dated 1996)",
  "origin": "cited, not measured here",
  "key": {"MCF-7, a mammary tumour": {"tested_on": "MCF-7, a mammary tumour", "conditions": "earlier work"}, "[1]": {"tested_on": "two human tumour cell lines, MCF-7 and WiDR", "conditions": "in words"}, "WiDR, a colon carcinoma": {"tested_on": "WiDR, a colon carcinoma", "conditions": "earlier work"}},
  "data": [
    {"molecule": "CCC[CH2][Sn]([CH2]CCC)([O]C(=O)c1cccc(F)c1F)[O]C(=O)c1cccc(F)c1F", "note": "[(2,3-F2 C6 H3 CO2)2 SnBu2]", "values": [
      {"measurement": "ID50", "setting": "MCF-7, a mammary tumour", "value": 0.023, "unit": "µg/mL"},
      {"measurement": "ID50 compared with reference drug", "setting": "[1]", "value": "comparable to mitomycin C"},
      {"measurement": "ID50", "setting": "WiDR, a colon carcinoma", "value": 0.283, "unit": "µg/mL"}
    ]},
    {"molecule": "CCC[CH2][Sn]([CH2]CCC)([O]C(=O)c1ccc(F)cc1)[O]C(=O)c1ccc(F)cc1", "note": "[(4-F-C6 H4 CO2)2 SnBu2]", "values": [
      {"measurement": "ID50", "setting": "MCF-7, a mammary tumour", "value": 0.09, "unit": "µg/mL"},
      {"measurement": "ID50 compared with reference drug", "setting": "[1]", "value": "comparable to those observed for etoposide"},
      {"measurement": "ID50", "setting": "WiDR, a colon carcinoma", "value": 0.309, "unit": "µg/mL"}
    ]},
    {"molecule": "CCC[CH2][Sn+2][CH2]CCC.O=C([O-])c1c(F)c(F)c(F)c(F)c1C(=O)[O-]", "note": "[Di-n-butyltintetrafluorophthalate]", "values": [
      {"measurement": "ID50", "setting": "MCF-7, a mammary tumour", "value": 0.051, "unit": "µg/mL"},
      {"measurement": "ID50", "setting": "WiDR, a colon carcinoma", "value": 0.068, "unit": "µg/mL"}
    ]},
    {"molecule": "{(2,3,4,5-F4 C6 HCO2 SnBu2)2 O}2", "values": [
      {"measurement": "ID50", "setting": "MCF-7, a mammary tumour", "value": 0.035, "unit": "µg/mL"},
      {"measurement": "ID50", "setting": "WiDR, a colon carcinoma", "value": 0.25, "unit": "µg/mL"}
    ]},
    {"molecule": "{(2,3,6-F3 C6 H3 CO2 SnBu2)2 O}2", "values": [
      {"measurement": "ID50", "setting": "MCF-7, a mammary tumour", "value": 0.013, "unit": "µg/mL"},
      {"measurement": "ID50", "setting": "WiDR, a colon carcinoma", "value": 0.2, "unit": "µg/mL"}
    ]},
    {"molecule": "{(2,3-F2 C6 H3 CO2 SnBu2)2 O}2", "values": [
      {"measurement": "ID50", "setting": "MCF-7, a mammary tumour", "value": 0.009, "unit": "µg/mL"},
      {"measurement": "ID50 compared with reference drug", "setting": "[1]", "value": "comparable to mitomycin C"},
      {"measurement": "ID50", "setting": "WiDR, a colon carcinoma", "value": 0.12, "unit": "µg/mL"}
    ]},
    {"molecule": "{(2-F-C6 H4 CH=CHC2 SnBu2)2 O}2", "values": [
      {"measurement": "ID50", "setting": "MCF-7, a mammary tumour", "value": 0.028, "unit": "µg/mL"},
      {"measurement": "ID50", "setting": "WiDR, a colon carcinoma", "value": 0.368, "unit": "µg/mL"}
    ]},
    {"molecule": "{(4-F-C6 H4 CH2 CO2 SnBu2)2 O}2", "values": [
      {"measurement": "ID50", "setting": "MCF-7, a mammary tumour", "value": 0.038, "unit": "µg/mL"},
      {"measurement": "ID50", "setting": "WiDR, a colon carcinoma", "value": 0.268, "unit": "µg/mL"}
    ]},
    {"molecule": "{(4-F-C6 H4 CO2 SnBu2)2 O}2", "values": [
      {"measurement": "ID50", "setting": "MCF-7, a mammary tumour", "value": 0.081, "unit": "µg/mL"},
      {"measurement": "ID50 compared with reference drug", "setting": "[1]", "value": "comparable to those observed for etoposide"},
      {"measurement": "ID50", "setting": "WiDR, a colon carcinoma", "value": 0.36, "unit": "µg/mL"}
    ]}
  ]
}
